In brackets after ≈: the same amount, converted by molar mass. Read-outs that look alike come from different tables or passages of the source.
Legend:
human RXFP1 = biological target: T1, human RXFP1 (Homo sapiens, UniProt Q9HBX9); assay: RXFP1 Hu cAMP (Test A); format: cell-based; design: expressed in transfected cells; host or cells: Jump-In T-REx CHO-K1 cells (ThermoFisher), induced with 10 ng/ml doxycycline for 24 h
T1 sequence (Q9HBX9 1-757): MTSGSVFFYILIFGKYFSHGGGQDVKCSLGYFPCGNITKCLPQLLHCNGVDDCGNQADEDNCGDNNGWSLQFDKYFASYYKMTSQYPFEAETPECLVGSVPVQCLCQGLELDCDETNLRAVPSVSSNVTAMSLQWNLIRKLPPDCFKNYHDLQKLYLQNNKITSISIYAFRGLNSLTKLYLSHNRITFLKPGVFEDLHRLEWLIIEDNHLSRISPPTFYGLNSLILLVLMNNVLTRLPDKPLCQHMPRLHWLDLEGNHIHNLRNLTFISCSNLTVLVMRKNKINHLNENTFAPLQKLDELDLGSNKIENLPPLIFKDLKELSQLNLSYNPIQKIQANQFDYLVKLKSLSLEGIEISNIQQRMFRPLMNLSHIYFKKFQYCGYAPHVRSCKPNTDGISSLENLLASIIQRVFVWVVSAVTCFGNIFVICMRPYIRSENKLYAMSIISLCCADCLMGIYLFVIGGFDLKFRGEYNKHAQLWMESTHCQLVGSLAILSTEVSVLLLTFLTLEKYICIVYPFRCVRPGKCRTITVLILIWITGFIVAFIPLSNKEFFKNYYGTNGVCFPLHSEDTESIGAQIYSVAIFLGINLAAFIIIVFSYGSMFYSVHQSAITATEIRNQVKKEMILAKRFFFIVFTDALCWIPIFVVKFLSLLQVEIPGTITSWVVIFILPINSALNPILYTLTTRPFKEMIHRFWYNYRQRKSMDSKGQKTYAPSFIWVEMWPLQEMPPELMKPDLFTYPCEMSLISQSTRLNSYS
Procedure, shortened: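 Competitive HTRF cAMP readout (2 h, room temperature) in CHO-K1 cells stably expressing human RXFP1, induced with 10 ng/ml doxycycline for 24 h; IBMX 0.5 mM final.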

[1] = Human Plasma Protein Binding (Test B); format: in vitro ADME; details: fraction unbound (fu)
Procedure, shortened: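 Human plasma protein binding run per the published Wernevik et al. (2020) integrated DMPK panel protocol. Values are fraction unbound (fu, % free); repeat runs averaged arithmetically.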

[2] = Human Liver Microsomal Stability (Test C); format: in vitro ADME; details: human, liver microsomes
Procedure, shortened: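 Human liver microsome incubation per the Wernevik et al. integrated DMPK panel protocol. Intrinsic clearance reported as CLint in μl/min/mg protein, averaged arithmetically over repeat runs.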

Solubility (Test F) = format: physicochemical; details: arithmetic mean if run multiple times
Description: The assay was conducted according to the Solubility Assay described in pages 164-167 of Wernevik, J. et al., “A Fully Integrated Assay Panel for Early Drug Metabolism and Pharmacokinetics Profiling”, Assay and Drug Development Technologies, 2020, 18(4), 157-179. Data are reported in Table 36 as solubility ([…]. Where the assay was run multiple times for the same compound, the arithmetic mean is reported.

[3] = Rat Hepatocyte Stability (Test E); format: in vitro ADME; details: rat, hepatocytes, geometric mean if run multiple times
Procedure, shortened: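 Run per the published AstraZeneca-type rat hepatocyte stability protocol (Wernevik et al. panel). Values are mean intrinsic clearance, Clint in μl/min/10^6 cells; geometric mean used for repeated runs.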

[4] = Human Hepatocyte Stability (Test D); format: in vitro ADME; details: human, cryopreserved pooled human hepatocytes (LiverPool 10-Donor), geometric mean if run multiple times
Procedure, shortened: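 Pooled 10-donor cryopreserved human hepatocytes (≥80% viable) in L-15 medium at 0.25×10^6 cells per 0.25 mL well. Compound added from 100 μM acetonitrile solution; incubated at 37 °C with shaking, acetonitrile-quenched, LC-MS analysed. Clint (μL/min/10^6 cells) from ln % parent vs time slope; geometric mean of repeat runs.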

[5] = RXFP1 Hu cAMP, read-out: Test A EC50

Compound	Test A Sinf (human RXFP1; RXFP1 Hu cAMP) [%]	EC50 (human RXFP1; [5]) [µM]	Test B Human Plasma Protein Binding (% free) [1] [% free]	microsomal CLint [2] [µL/min/mg]	solubility (Solubility (Test F)) [µM]	hepatocyte CLint [3] [µL/min/1e6 cells]	hepatocyte CLint at 1 µM [4] [µL/min/1e6 cells]	EC50 (human RXFP1; Test A EC50, RXFP1 Hu cAMP) [µM]
COc1cc(F)c(O[C@H]2CC[C@@](C)(C(=O)O)CC2)cc1C(=O)Nc1ccc(C)cc1C(=O)NCC1(C)CCC1 [Example 216, (1s,4s)-4-(2-Fluoro-4-methoxy-5-((4-methyl-2-(((1-methylcyclobutyl)methyl)-carbamoyl)phenyl)carbamoyl)phenoxy)-1-methylcyclohexane-1-carboxylic acid]	132	0.21	0.64	< 3	3.1 (≈ 1.68 µg/mL)	19	4.2	–
CC1(CNC(=O)[C@H]2[C@H]3CC[C@H](C3)[C@H]2NC(=O)c2cc(O[C@H]3CC[C@@](C)(C(=O)O)CC3)c(C#N)cc2F)CCC1 [Example 413]	107	–	1.5	9.3	820 (≈ 443 µg/mL)	21	4.5	0.016
COc1cc(F)c(-c2ccc(CCC(=O)O)nc2)cc1C(=O)N[C@@H]1[C@H]2CC[C@H](C2)[C@@H]1C(=O)Nc1cccc(S(=O)(=O)C(F)(F)F)c1 [Example 258, 3-(5-(2-Fluoro-4-methoxy-5-(((1S,2R,3S,4R)-3-((3-((trifluoromethyl)sulfonyl)phenyl)carbamoyl)bicyclo[2.2.1]heptan-2-yl)carbamoyl)phenyl)pyridin-2-yl)propanoic acid]	106	0.12	1.7	65	> 1000	35	30	–
COc1cc(F)c(-c2ccc(C(=O)O)cc2)cc1C(=O)N[C@H]1[C@@H](C(=O)Nc2cc(F)cc(C(F)(F)F)c2)[C@@H]2C=C[C@H]1C2 (racemic) [Example 308]	109	–	0.16	4.9	> 1000	33	14	–
CCC(CC)[C@@H](C)NC(=O)[C@H]1[C@@H]2CC[C@@H](C2)[C@H]1NC(=O)c1cc(O[C@H]2CC[C@@](C)(C(=O)O)CC2)c(F)cc1OC (single isomer, unassigned) [Example 145, (1S,4s)-4-(5-(((1S,2R,3S,4R)-3-(((R*)-3-Ethylpentan-2-yl)carbamoyl)bicyclo[2.2.1]heptan-2-yl)carbamoyl)-2-fluoro-4-methoxyphenoxy)-1-methylcyclohexane-1-carboxylic acid]	95	1.3	0.81	180	870 (≈ 488 µg/mL)	53	14	–
COc1cc(C#N)c(O[C@H]2CC[C@@](C)(C(=O)O)CC2)cc1C(=O)N[C@@H]1[C@@H]2CC[C@@H](C2)[C@@H]1C(=O)NCC(C)(C)C(F)(F)F [Example 502, (1S,4s)-4-(2-Cyano-4-methoxy-5-(((1R,2R,3S,4S)-3-((3,3,3-trifluoro-2,2-dimethylpropyl)carbamoyl)bicyclo[2.2.1]heptan-2-yl)carbamoyl)phenoxy)-1-methylcyclohexane-1-carboxylic acid]	106	0.0085	4	< 4.5	910 (≈ 540 µg/mL)	7.2	5.3	–
COc1cc(C#N)c(O[C@H]2CC[C@@](C)(C(=O)O)CC2)cc1C(=O)N[C@@H]1[C@H]2CC[C@H](C2)[C@@H]1C(=O)NC(C)(C)CF [Example 77]	108	–	21	4	650 (≈ 353 µg/mL)	12	3.7	–
COc1cc(F)c(O[C@H]2CC[C@@](C)(C(=O)O)CC2)cc1C(=O)NC1C2CCC(C2)C1C(=O)Nc1ccc(F)c(S(F)(F)(F)(F)F)c1 (single isomer, unassigned) [Example 520, (1R,4s)-4-(2-Fluoro-5-(((1S*,2S*,3R*,4R*)-3-((4-fluoro-3-(pentafluoro-λ6-sulfaneyl)phenyl)carbamoyl)bicyclo[2.2.1]heptan-2-yl)carbamoyl)-4-methoxyphenoxy)-1-methylcyclohexane-1-carboxylic acid]	108	0.00049	<0.070	12	460 (≈ 314 µg/mL)	7.5	5.7	–
COc1c(C#N)cc(O[C@H]2CC[C@@](C)(C(=O)O)CC2)cc1C(=O)N[C@@H]1[C@H]2CC[C@H](C2)[C@@H]1C(=O)NCC1(C)CCC1 [Example 404]	–	–	2.3	50	1000 (≈ 552 µg/mL)	19	11	0.086
COc1cc(F)c(O[C@H]2CC[C@@H](C(=O)O)CC2)cc1C(=O)N[C@@H]1[C@H]2CC[C@H](C2)[C@@H]1C(=O)Nc1cccc(S(=O)(=O)C(F)(F)F)c1 [Example 491]	102	0.042	2.1	42	550 (≈ 361 µg/mL)	23	15	–
COc1cc(F)c(OCCCCCCC(=O)O)cc1C(=O)N[C@@H]1[C@H]2CC[C@H](C2)[C@@H]1C(=O)Nc1cccc(S(=O)(=O)C(F)(F)F)c1 [Example 436]	115	0.54	0.82	70	220 (≈ 145 µg/mL)	> 300	97	–
COc1cc(F)c(OC2CCC(C)(C(=O)O)CC2)cc1C(=O)NC1CC(OC)CC1C(=O)Nc1cccc(S(=O)(=O)C(F)(F)F)c1 (single isomer, unassigned) [Example 524, (1R,4s)-4-(2-Fluoro-4-methoxy-5-(((1S*,2R*,4R*)-4-methoxy-2-((3-((trifluoromethyl)sulfonyl)phenyl)carbamoyl)cyclopentyl)carbamoyl)phenoxy)-1-methylcyclohexane-1-carboxylic acid]	110	0.025	3.6	16	920 (≈ 621 µg/mL)	23	6.2	–
COc1cc(F)c(O[C@H]2C[C@@H](C(=O)O)C2)cc1C(=O)NC1[C@H]2CC[C@H](C2)[C@@H]1C(=O)Nc1cccc(S(=O)(=O)C(F)(F)F)c1 (some centres unmarked) [Example 444]	117	0.12	2.5	18	> 1000	22	15	–
COc1cc(F)c(OC2CCC(C)(C(=O)O)CC2)cc1C(=O)NC1C2CCC(CC2)C1C(=O)NCC1(C)CCC1 (single isomer, unassigned) [Example 542, (1R,4s)-4-(2-Fluoro-4-methoxy-5-(((2S*,3R*)-3-(((1-methylcyclobutyl)methyl)carbamoyl)bicyclo[2.2.2]octan-2-yl)carbamoyl)phenoxy)-1-methylcyclohexane-1-carboxylic acid]	110	0.011	2.5	66	800 (≈ 447 µg/mL)	12	32	–
